From PubChem BioAssay AID248 (DTP/NCI, 2004) come the findings set out here.

The test relates to L1210 leukemia ip in BDF1 mice, survival T/C. Put plainly: NCI In Vivo Anticancer Drug Screen. Data for tumor model L1210 Leukemia (intraperitoneal) in B6D2F1 (BDF1) mice. As to conditions: endpoint: mean survival time, higher = longer survival. In a few lines:
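In this screen, tumor-bearing mice given compound are compared to those given vehicle, and their survival values are reported as a treated-to-control quotient.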

Setting [1] is: dose: 50.0 mg/kg/injection, schedule: Q01DX009 (ip), vehicle: saline with Tween-80.
Setting [2] is: dose: 100.0 mg/kg/injection, schedule: Q01DX009 (ip), vehicle: saline with Tween-80.
Setting [3] is: dose: 200.0 mg/kg/injection, schedule: Q01DX009 (ip), vehicle: saline with Tween-80.
The mark [4] stands for this setting: dose: 50.0 mg/kg/injection, schedule: Q01DX009 (ip), vehicle: saline.
Where [5] appears, read: dose: 200.0 mg/kg/injection, schedule: Q04DX003 (ip), vehicle: saline.

Where “and” joins values, the source holds several entries; their conditions need not be identical. Equal values may be shown once. Inconclusive results and toxic doses are left out.

As for `CC(O)CC(C)(C)c1ccccc1` (stereo unspecified), the T/C under setting [1] is 93 % of control, the T/C under setting [2] was 93 % of control and the T/C under setting [3] was 89 % of control.
For the compound `c1nc(SSc2ncnc3nc[nH]c23)c2[nH]cnc2n1`, the T/C runs as follows: (dose: 0.1 mg/kg/injection, schedule: Q04DX003 (ip), vehicle: saline) 97 % of control; (dose: 0.12 mg/kg/injection, schedule: Q04DX003 (ip), vehicle: saline) 119 % of control; (dose: 0.2 mg/kg/injection, schedule: Q04DX003 (ip), vehicle: saline) 119 % of control; (dose: 0.25 mg/kg/injection, schedule: Q04DX003 (ip), vehicle: saline) 117 % of control; (dose: 0.35 mg/kg/injection, schedule: Q01DX009 (ip), vehicle: saline) 100 % of control; (dose: 0.5 mg/kg/injection, schedule: Q04DX003 (ip), vehicle: saline) 120 % of control. In addition, the T/C was 152 % of control (dose: 0.8 mg/kg/injection, schedule: Q01DX009 (ip), vehicle: saline); 98 % of control (dose: 0.8 mg/kg/injection, schedule: Q04DX003 (ip), vehicle: saline with Tween-80); 106 % of control (dose: 1.6 mg/kg/injection, schedule: Q04DX003 (ip), vehicle: saline with Tween-80); 239 % of control (dose: 3.0 mg/kg/injection, schedule: Q04DX003 (ip), vehicle: saline); 121 % of control (dose: 3.08 mg/kg/injection, schedule: Q01DX001 (ip), vehicle: saline with Tween-80); 113 % of control (dose: 3.25 mg/kg/injection, schedule: Q04DX003 (ip), vehicle: saline with Tween-80). Further, the T/C reads like this: (dose: 5.5 mg/kg/injection, schedule: Q04DX003 (ip), vehicle: Klucel (hydroxypropylcellulose) (HPC)) 121 % of control; (dose: 6.0 mg/kg/injection, schedule: Q04DX003 (ip), vehicle: saline) 112 % of control; (dose: 7.5 mg/kg/injection, schedule: Q04DX003 (ip), vehicle: saline) 189 % of control; (dose: 10.0 mg/kg/injection, schedule: Q01DX001 (ip), vehicle: saline) 118 % of control; (dose: 10.0 mg/kg/injection, schedule: Q01DX009 (ip), vehicle: saline) 169 % of control; (dose: 12.0 mg/kg/injection, schedule: Q01DX001 (ip), vehicle: saline) 103 % of control. In addition, the T/C (dose: 12.0 mg/kg/injection, schedule: Q04DX003 (ip), vehicle: saline) was 154 % of control; the T/C (dose: 15.0 mg/kg/injection, schedule: Q01DX009 (ip), vehicle: saline) was 154 % of control; the T/C (dose: 15.0 mg/kg/injection, schedule: Q04DX003 (ip), vehicle: saline) was 159 % of control; the T/C (dose: 25.0 mg/kg/injection, schedule: Q04DX003 (ip), vehicle: saline) was 151 % of control; the T/C (dose: 26.0 mg/kg/injection, schedule: Q04DX003 (ip), vehicle: saline with Tween-80) is 157 % of control; the T/C (dose: 29.7 mg/kg/injection, schedule: Q04DX003 (ip), vehicle: saline) was 106 % of control. The T/C was 90 % of control (dose: 30.0 mg/kg/injection, schedule: Q04DX003 (ip), vehicle: saline); 120 % of control (dose: 33.0 mg/kg/injection, schedule: Q04DX003 (ip), vehicle: Klucel (hydroxypropylcellulose) (HPC)); 163 % of control (dose: 35.0 mg/kg/injection, schedule: Q01DX009 (ip), vehicle: saline with Tween-80); 198 % of control (dose: 35.0 mg/kg/injection, schedule: Q04DX003 (ip), vehicle: Klucel (hydroxypropylcellulose) (HPC)); 172 % of control (dose: 39.0 mg/kg/injection, schedule: Q04DX003 (ip), vehicle: saline with Tween-80); 100 % of control (dose: 44.0 mg/kg/injection, schedule: Q01DX009 (ip), vehicle: saline). In addition, the T/C (dose: 44.0 mg/kg/injection, schedule: Q04DX003 (ip), vehicle: saline) was 202 % of control; the T/C under setting [4] was 106 % of control; the T/C (dose: 50.0 mg/kg/injection, schedule: Q04DX003 (ip), vehicle: Klucel (hydroxypropylcellulose) (HPC)) was 152 % of control and 209 % of control; the T/C (dose: 50.0 mg/kg/injection, schedule: Q04DX003 (ip), vehicle: saline) is 123 % of control and 203 % of control; the T/C (dose: 52.0 mg/kg/injection, schedule: Q04DX003 (ip), vehicle: saline with Tween-80) was 168 % of control; the T/C (dose: 63.0 mg/kg/injection, schedule: Q01DX Z (ip), vehicle: saline) was 95 % of control. Besides, the T/C is 157 % of control (dose: 66.0 mg/kg/injection, schedule: Q01DX001 (ip), vehicle: saline); 216 % of control (dose: 66.0 mg/kg/injection, schedule: Q04DX003 (ip), vehicle: saline); 106 % of control (dose: 67.5 mg/kg/injection, schedule: Q04DX003 (ip), vehicle: saline); 93 % of control (dose: 70.0 mg/kg/injection, schedule: Q01DX009 (ip), vehicle: saline with Tween-80); 178 % of control (dose: 70.0 mg/kg/injection, schedule: Q04DX003 (ip), vehicle: saline); 155 % of control (dose: 100.0 mg/kg/injection, schedule: Q01DX001 (ip), vehicle: saline). The T/C runs as follows: (dose: 100.0 mg/kg/injection, schedule: Q04DX003 (ip), vehicle: Klucel (hydroxypropylcellulose) (HPC)) 124 % of control; (dose: 140.0 mg/kg/injection, schedule: Q04DX003 (ip), vehicle: saline) 103 % of control; under setting [5], 89 % of control.
As for `CC(=O)Oc1ccc2c(c1)C(=O)CCCC2`, the T/C runs as follows: under setting [1], 88 % of control; under setting [2], 88 % of control; under setting [3], 88 % of control.
As to `CC1CC1C(N)=O` (stereo unspecified), the T/C was 97 % of control (dose: 100.0 mg/kg/injection, schedule: Q04DX002 (ip), vehicle: saline) and 110 % of control (dose: 200.0 mg/kg/injection, schedule: Q04DX002 (ip), vehicle: saline).
For the compound `O=C(NNC(=O)OCC(Cl)(Cl)Cl)OCC(Cl)(Cl)Cl`, the T/C (dose: 25.0 mg/kg/injection, schedule: Q04DX002 (ip), vehicle: saline with Tween-80) is 90 % of control and the T/C (dose: 50.0 mg/kg/injection, schedule: Q04DX002 (ip), vehicle: saline with Tween-80) is 87 % of control.
In the case of `O=C(Nc1ccc(Cl)c(Cl)c1)Nc1ccc(Oc2ccc(Cl)cc2Cl)cc1S(=O)(=O)O`, the T/C reads like this: (dose: 100.0 mg/kg/injection, schedule: Q04DX003 (ip), vehicle: alcohol) 100 % of control; (dose: 200.0 mg/kg/injection, schedule: Q04DX003 (ip), vehicle: alcohol) 103 % of control.
As for `NC(=O)C(O)C(O)C(O)C(O)C(N)=O` (stereo unspecified), the T/C is 100 % of control under setting [4]; 98 % of control (dose: 100.0 mg/kg/injection, schedule: Q01DX009 (ip), vehicle: saline); 92 % of control (dose: 100.0 mg/kg/injection, schedule: Q04DX003 (ip), vehicle: saline); 93 % of control (dose: 200.0 mg/kg/injection, schedule: Q01DX009 (ip), vehicle: saline); 93 % of control under setting [5].
With `CCC(C)NCCNCCNC(C)CC` (stereo unspecified), the T/C by setting is: (dose: 6.25 mg/kg/injection, schedule: Q01DX009 (ip), vehicle: saline) 101 % of control; (dose: 6.25 mg/kg/injection, schedule: Q04DX003 (ip), vehicle: Klucel (hydroxypropylcellulose) (HPC)) 102 % of control; (dose: 12.5 mg/kg/injection, schedule: Q01DX009 (ip), vehicle: saline) 108 % of control; (dose: 12.5 mg/kg/injection, schedule: Q04DX003 (ip), vehicle: Klucel (hydroxypropylcellulose) (HPC)) 102 % of control; (dose: 25.0 mg/kg/injection, schedule: Q01DX009 (ip), vehicle: saline) 90 % of control; (dose: 25.0 mg/kg/injection, schedule: Q04DX003 (ip), vehicle: Klucel (hydroxypropylcellulose) (HPC)) 109 % of control.
Consider `Clc1ccc(C=Nc2cccc3ccccc23)cc1Cl`, for which the T/C is, setting by setting: under setting [2], 95 % of control; under setting [3], 95 % of control; (dose: 400.0 mg/kg/injection, schedule: Q01DX009 (ip), vehicle: saline with Tween-80) 94 % of control.
